The values below come from patent publication US9340521B2, “Method for dual inhibition of SGLT1 and SGLT2 using diphenylmethane derivatives” (GREEN CROSS CORPORATION, priority 2013, dated 2016).

One experiment concerns the target Human SGLT2 (hSGLT2) (Homo sapiens (Human), UniProt P31639). As to the kind of experiment: Inhibitory effects on human SGLT2 activities (14C-AMG uptake, sodium-dependent glucose transport assay). The class given is cell-based. The settings on record: hSGLT2-expressing CHO cells, 37° C. for 2 h, single determinations. From the text:
Test 1: Cloning and Cell Line Construction for Human SGLT2
Human SGLT2 (hSGLT2) gene was amplified by PCR from cDNA-Human Adult Normal Tissue Kidney (Invitrogen). The hSGLT2 sequence was cloned into pcDNA3.1(+) for mammalian expression and stably transfected into chinese hamster ovary (CHO) cells. SGLT2-expressing clones were selected based on resistance to G418 antibiotic (Geneticin) and activity in the ^14C-α-methyl-D-glucopyranoside (^14C-AMG) uptake assay.
Test 2: Inhibitory Effects on Human SGLT2 Activities
(§1) For sodium-dependent glucose transport assay, cells expressing hSGLT2 were seeded into a 96-well culture plate at a density of 5×10^4 cells/well in RPMI medium 1640 containing 10% fetal bovine serum. The cells were used 1 day after plating. They were incubated in pretreatment buffer (10 mM HEPES, 5 mM Tris, 140 mM choline chloride, 2 mM KCl, 1 mM CaCl2, and 1 mM MgCl2, pH 7.4) at 37° C. for 10 min. They were then incubated in uptake buffer (10 mM HEPES, 5 mM Tris, 140 mM NaCl, 2 mM KCl, 1 mM CaCl2, 1 mM MgCl2, and 1 mM ^14C-nonlabeled AMG pH 7.4) containing ^14C-labeled AMG (8 μM) and the inventive compound or dimethyl sulfoxide (DMSO) vehicle at 37° C. for 2 h. Cells were washed twice with washing buffer (pretreatment buffer containing 10 mM AMG at room temperature) and then the radioactivity was measured using a liquid scintillation counter. IC50 was determined by nonlinear regression analysis using GraphPad PRISM [Katsuno, K. et al. J. Pharmacol. Exp. Ther. 2007, 320, 323-330; Han, S. et al. Diabetes, 2008, 57, 1723-1729].

A further experiment deals with Human SGLT1 (hSGLT1) (Homo sapiens (Human), UniProt P13866). As to the kind of experiment: Inhibitory effects on human SGLT1 activities (14C-AMG uptake, sodium-dependent glucose transport assay). The class given is cell-based. The settings on record: 37° C. for 2 h, single determinations. How it is done: Test 3: Inhibitory Effects on Human SGLT1 Activities
as §1, with “^14C-labeled” for “^14C-labeled AMG”, “inhibitor” for “the inventive compound”, “PRISM.” for “PRISM [Katsuno, K. et al. J. Pharmacol. Exp. Ther. 2007, 320, 323-330; Han, S. et al. Diabetes, 2008, 57, 1723-1729].”

Human SGLT2 (hSGLT2), sequence (P31639 whole entry): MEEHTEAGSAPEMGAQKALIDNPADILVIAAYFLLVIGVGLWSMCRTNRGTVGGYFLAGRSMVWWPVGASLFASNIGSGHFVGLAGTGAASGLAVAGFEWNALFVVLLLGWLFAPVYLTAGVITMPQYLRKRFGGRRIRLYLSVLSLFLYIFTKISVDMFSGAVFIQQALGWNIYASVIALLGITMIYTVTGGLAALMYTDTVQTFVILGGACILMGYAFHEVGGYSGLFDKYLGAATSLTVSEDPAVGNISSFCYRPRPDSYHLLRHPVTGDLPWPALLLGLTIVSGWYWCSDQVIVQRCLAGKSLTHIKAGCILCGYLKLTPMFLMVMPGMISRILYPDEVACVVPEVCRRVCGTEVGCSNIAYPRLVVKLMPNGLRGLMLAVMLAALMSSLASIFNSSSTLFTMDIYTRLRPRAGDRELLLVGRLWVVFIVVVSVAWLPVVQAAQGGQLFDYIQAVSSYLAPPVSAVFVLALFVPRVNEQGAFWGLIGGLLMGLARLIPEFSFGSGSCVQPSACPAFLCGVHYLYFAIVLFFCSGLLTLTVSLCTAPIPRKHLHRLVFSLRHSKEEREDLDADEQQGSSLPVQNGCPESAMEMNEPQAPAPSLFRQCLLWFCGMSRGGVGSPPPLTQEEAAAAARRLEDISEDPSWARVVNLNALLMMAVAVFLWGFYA
Human SGLT1 (hSGLT1), sequence (P13866 whole entry): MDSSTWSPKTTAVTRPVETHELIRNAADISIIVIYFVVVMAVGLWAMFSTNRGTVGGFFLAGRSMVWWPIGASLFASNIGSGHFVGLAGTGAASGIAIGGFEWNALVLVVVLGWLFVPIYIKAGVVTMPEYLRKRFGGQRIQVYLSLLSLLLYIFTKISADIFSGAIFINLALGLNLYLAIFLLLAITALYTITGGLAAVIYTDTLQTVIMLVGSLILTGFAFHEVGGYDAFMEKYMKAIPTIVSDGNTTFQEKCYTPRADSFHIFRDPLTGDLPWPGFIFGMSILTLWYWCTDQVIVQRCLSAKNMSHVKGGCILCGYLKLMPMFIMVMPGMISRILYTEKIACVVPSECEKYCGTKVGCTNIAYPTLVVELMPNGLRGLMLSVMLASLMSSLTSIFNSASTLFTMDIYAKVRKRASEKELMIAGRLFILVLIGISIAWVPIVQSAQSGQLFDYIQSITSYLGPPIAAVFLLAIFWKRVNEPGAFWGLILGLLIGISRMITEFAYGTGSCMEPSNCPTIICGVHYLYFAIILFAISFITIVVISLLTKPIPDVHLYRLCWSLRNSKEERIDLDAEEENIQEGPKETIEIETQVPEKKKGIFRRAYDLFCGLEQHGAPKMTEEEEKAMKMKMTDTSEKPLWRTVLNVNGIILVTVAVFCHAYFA

`CCOc1ccc(Cc2cc([C@@H]3O[C@H](SC)[C@@H](O)[C@H](O)[C@H]3O)c3c(c2Cl)OCCO3)cc1` [Compound E021, (2S,3R,4R,5S,6R)-2-(8-Chloro-7-(4-ethoxybenzyl)-2,3-dihydrobenzo[b][1,4]dioxin-5-yl)-6-(methylthio)tetrahydro-2H-pyran-3,4,5-triol]: the IC50 is 0.71 nM on Human SGLT2 (hSGLT2) and 166 nM on Human SGLT1 (hSGLT1).
Regarding `OC[C@H]1O[C@@H](c2cc(Cc3ccc(C4CC4)cc3)c(Cl)c3c2CCCO3)[C@H](O)[C@@H](O)[C@@H]1O` [Compound E022, (2S,3R,4R,5S,6R)-2-(8-Chloro-7-(4-cyclopropylbenzyl)chroman-5-yl)-6-(hydroxymethyl)tetrahydro-2H-pyran-3,4,5-triol], the concentration for half-maximal inhibition (IC50) at Human SGLT2 (hSGLT2) turned out to be 0.88 nM; against Human SGLT1 (hSGLT1), 50 nM.
As to `COc1ccc(Cc2cc([C@@H]3O[C@H](CO)[C@@H](O)[C@H](O)[C@H]3O)c3c(c2Cl)OCCC3)cc1` [Compound E023, (2S,3R,4R,5S,6R)-2-(8-Chloro-7-(4-methoxybenzyl)chroman-5-yl)-6-(hydroxymethyl)tetrahydro-2H-pyran-3,4,5-triol], the IC50 came out at 2.1 nM against Human SGLT2 (hSGLT2) and 78.1 nM against Human SGLT1 (hSGLT1).
`OC[C@H]1O[C@@H](c2cc(Cc3ccc(C4CC4)cc3)c(Cl)c3c2OCO3)[C@H](O)[C@@H](O)[C@@H]1O` [Compound E024, (2S,3R,4R,5S,6R)-2-(7-Chloro-6-(4-cyclopropylbenzyl)benzo[d][1,3]dioxol-4-yl)-6-(hydroxymethyl)tetrahydro-2H-pyran-3,4,5-triol]: the concentration for half-maximal inhibition (IC50) at Human SGLT2 (hSGLT2) came out at 0.37 nM; against Human SGLT1 (hSGLT1), 53 nM.
On to `COc1ccc(Cc2cc([C@@H]3O[C@H](CO)[C@@H](O)[C@H](O)[C@H]3O)c3c(c2Cl)OCO3)cc1` [Compound E025, (2S,3R,4R,5S,6R)-2-(7-Chloro-6-(4-methoxybenzyl)benzo[d][1,3]dioxol-4-yl)-6-(hydroxymethyl)tetrahydro-2H-pyran-3,4,5-triol], for which the IC50 against Human SGLT2 (hSGLT2) was 1.2 nM; on Human SGLT1 (hSGLT1) it was 89.4 nM.
With `CCc1ccc(Cc2cc([C@@H]3O[C@H](CO)[C@@H](O)[C@H](O)[C@H]3O)c3c(c2Cl)OCO3)cc1` [Compound E026, (2S,3R,4R,5S,6R)-2-(7-Chloro-6-(4-ethylbenzyl)benzo[d][1,3]dioxol-4-yl)-6-(hydroxymethyl)tetrahydro-2H-pyran-3,4,5-triol], the IC50 on Human SGLT2 (hSGLT2) stood at 0.4 nM; on Human SGLT1 (hSGLT1) it was 86.9 nM.
`OC[C@H]1O[C@@H](c2cc(Cc3ccc(C4CC4)cc3)c(Cl)c3c2OCCO3)[C@H](O)[C@@H](O)[C@@H]1O` [Compound E027, (2S,3R,4R,5S,6R)-2-(8-Chloro-7-(4-cyclopropylbenzyl)-2,3-dihydrobenzo[b][1,4]dioxin-5-yl)-6-(hydroxymethyl)tetrahydro-2H-pyran-3,4,5-triol]: the IC50 turned out to be 0.65 nM against Human SGLT2 (hSGLT2) and 41.9 nM at Human SGLT1 (hSGLT1).
For the molecule `C=Cc1ccc(Cc2cc([C@@H]3O[C@H](CO)[C@@H](O)[C@H](O)[C@H]3O)c3c(c2Cl)OCC3)cc1` [Compound E028, (2S,3R,4R,5S,6R)-2-(7-Chloro-6-(4-vinylbenzyl)-2,3-dihydrobenzofuran-4-yl)-6-(hydroxymethyl)tetrahydro-2H-pyran-3,4,5-triol], the IC50 turned out to be 0.37 nM against Human SGLT2 (hSGLT2) and 163 nM against Human SGLT1 (hSGLT1).
On to `COc1ccc(Cc2cc([C@@H]3O[C@H](SC)[C@@H](O)[C@H](O)[C@H]3O)c3c(c2Cl)CCCO3)cc1` [Compound E029, (2S,3R,4R,5S,6R)-2-(5-Chloro-6-(4-methoxybenzyl)chroman-8-yl)-6-(methylthio)tetrahydro-2H-pyran-3,4,5-triol], for which the values for the IC50 against Human SGLT2 (hSGLT2) and at Human SGLT1 (hSGLT1) were 0.47 nM and 21.1 nM, respectively.
The corresponding values for `COc1ccc(Cc2cc([C@@H]3O[C@H](CO)[C@@H](O)[C@H](O)[C@H]3O)c3c(c2Cl)CCS3)cc1` [Compound E030, (2S,3R,4R,5S,6R)-2-(4-Chloro-5-(4-methoxybenzyl)-2,3-dihydrobenzo[b]thiophen-7-yl)-6-(hydroxymethyl)tetrahydro-2H-pyran-3,4,5-triol] are 2.3 nM and 171 nM.
With `CCOc1ccc(Cc2cc([C@@H]3O[C@H](CO)[C@@H](O)[C@H](O)[C@H]3O)c3c(c2Cl)C(C)CO3)cc1` (stereo partly drawn) [Compound E031, (2S,3R,4R,5S,6R)-2-(4-Chloro-5-(4-ethoxybenzyl)-3-methyl-2,3-dihydrobenzofuran-7-yl)-6-(hydroxymethyl)-tetrahydro-2H-pyran-3,4,5-triol], the IC50 was found to be 2 nM against Human SGLT2 (hSGLT2) and 196 nM at Human SGLT1 (hSGLT1).
For `COc1ccc(Cc2cc([C@@H]3O[C@H](CO)[C@@H](O)[C@H](O)[C@H]3O)c3c(c2C(F)F)CCC3)cc1` [Compound E032, (2S,3R,4R,5S,6R)-2-(7-(Difluoromethyl)-6-(4-methoxybenzyl)-2,3-dihydro-1H-inden-4-yl)-6-(hydroxymethyl)tetrahydro-2H-pyran-3,4,5-triol], the IC50 against Human SGLT2 (hSGLT2) came to 0.73 nM; at Human SGLT1 (hSGLT1), 16.5 nM.
In the same order, the values of `CCc1ccc(Cc2cc([C@@H]3O[C@H](CO)[C@@H](O)[C@H](O)[C@H]3O)c3c(c2Cl)CCC3)cc1` [Compound E033, (2S,3R,4R,5S,6R)-2-(7-Chloro-6-(4-ethylbenzyl)-2,3-dihydro-1H-inden-4-yl)-6-(hydroxymethyl)tetrahydro-2H-pyran-3,4,5-triol] are 0.63 nM and 57.2 nM.
In the same order, the values of `COc1ccc(Cc2cc([C@@H]3O[C@H](CO)[C@@H](O)[C@H](O)[C@H]3O)c3c(c2Cl)SCC3)cc1` [Compound E034, (2S,3R,4R,5S,6R)-2-(7-Chloro-6-(4-methoxybenzyl)-2,3-dihydrobenzo[b]thiophen-4-yl)-6-(hydroxymethyl)tetrahydro-2H-pyran-3,4,5-triol] are 0.9 nM and 27.6 nM.
Take `CCc1ccc(Cc2cc([C@@H]3O[C@H](CO)[C@@H](O)[C@H](O)[C@H]3O)c3c(c2Cl)SCC3)cc1` [Compound E035, (2S,3R,4R,5S,6R)-2-(7-Chloro-6-(4-ethylbenzyl)-2,3-dihydrobenzo[b]thiophen-4-yl)-6-(hydroxymethyl)tetrahydro-2H-pyran-3,4,5-triol]: the figures for the IC50 against Human SGLT2 (hSGLT2) and against Human SGLT1 (hSGLT1) were 0.87 nM and 53 nM, respectively.
Regarding `COc1ccc(Cc2cc([C@@H]3O[C@H](CO)[C@@H](O)[C@H](O)[C@H]3O)c3c(c2Cl)SCCC3)cc1` [Compound E036, (2S,3R,4R,5S,6R)-2-(8-Chloro-7-(4-methoxybenzyl)thiochroman-5-yl)-6-(hydroxymethyl)tetrahydro-2H-pyran-3,4,5-triol], the IC50 against Human SGLT2 (hSGLT2) is 0.55 nM; against Human SGLT1 (hSGLT1), 10.7 nM.
For `COc1ccc(Cc2cc([C@@H]3O[C@H](CO)[C@@H](O)[C@H](O)[C@H]3O)c3c(c2C)CCCC3)cc1` [Compound E037, (2R,3S,4R,5R,6S)-2-(Hydroxymethyl)-6-(3-(4-methoxybenzyl)-4-methyl-5,6,7,8-tetrahydronaphthalen-1-yl)tetrahydro-2H-pyran-3,4,5-triol], the 50% inhibitory concentration (IC50) on Human SGLT2 (hSGLT2) was 0.86 nM; on Human SGLT1 (hSGLT1) it was 10.5 nM.
With `COc1ccc(Cc2cc([C@@H]3O[C@H](CO)[C@@H](O)[C@H](O)[C@H]3O)c3c(c2Cl)CCCC3)cc1` [Compound E038, (2S,3R,4R,5S,6R)-2-(4-Chloro-3-(4-methoxybenzyl)-5,6,7,8-tetrahydronaphthalen-1-yl)-6-(hydroxymethyl)tetrahydro-2H-pyran-3,4,5-triol], the values for the 50% inhibitory concentration (IC50) against Human SGLT2 (hSGLT2) and on Human SGLT1 (hSGLT1) were 0.6 nM and 9.6 nM, respectively.
With `CCOc1ccc(Cc2cc([C@@H]3O[C@H](CO)[C@@H](O)[C@H](O)[C@H]3O)c3c(c2Cl)CCCC3)cc1` [Compound E039, (2S,3R,4R,5S,6R)-2-(4-Chloro-3-(4-ethoxybenzyl)-5,6,7,8-tetrahydronaphthalen-1-yl)-6-(hydroxymethyl)tetrahydro-2H-pyran-3,4,5-triol], the concentration for half-maximal inhibition (IC50) against Human SGLT2 (hSGLT2) was found to be 0.62 nM; on Human SGLT1 (hSGLT1) it was 33.2 nM.
As to `Cc1ccc(Cc2cc([C@@H]3O[C@H](CO)[C@@H](O)[C@H](O)[C@H]3O)c3c(c2Cl)OCO3)cc1` [Compound E040, (2S,3R,4R,5S,6R)-2-(7-Chloro-6-(4-methylbenzyl)benzo[d][1,3]dioxol-4-yl)-6-(hydroxymethyl)tetrahydro-2H-pyran-3,4,5-triol], the figures for the concentration for half-maximal inhibition (IC50) at Human SGLT2 (hSGLT2) and at Human SGLT1 (hSGLT1) were 1 nM and 94.6 nM, respectively.

Usually IC50 stands for the midpoint of a concentration-inhibition curve.
